These results are taken from US6365574B2, “Ethanolate of azithromycin, process for manufacture, and pharmaceutical compositions thereof” (Teva Pharmaceutical Industries Ltd., priority 1998, dated 2002).

“Also recorded” adds a separate entry of the source. Read-outs that look alike come from different tables or passages of the source.

A short description of series [1]: Hygroscopicity profile: controlled humidity chambers for two weeks, then Karl Fisher analysis of water content. It is filed as physicochemical. The settings on record: compared with azithromycin monohydrate over a range of relative humidity (FIG. 1); monohydrate data from EP 298,650. From the text: Hygroscopicity profiles were obtained by maintaining samples in controlled humidity chambers for a period of two weeks, followed by Karl Fisher analysis of water content.

The conditions of series [2]: cited from earlier work.

Take “9-deoxo-9a-aza-9a-methyl-9a-homoerythromycin A [ethanolate of azithromycin]”: the hygroscopicity entry in series [1] was “less hygroscopic than azithromycin monohydrate; also recorded: less hygroscopic than the prior art monohydrate”.
For “9-deoxo-9a-aza-9a-methyl-9a-homoerythromycin A”, the hygroscopicity entry in series [2] (according to CN 1,093,370) is given as “less hygroscopic than the dehydrate described in EP 298,650”.
On to “9-deoxo-9a-aza-9a-methyl-9a-homoerythromycin A [dehydrate form of azithromycin]”, for which the hygroscopicity result in series [2] (according to EP 298,650) is “less hygroscopic than the previously known monohydrate”.
As to “9-deoxo-9a-aza-9a-methyl-9a-homoerythromycin A [monohydrate]”, the hygroscopicity result in series [2] (according to EP 298,650) was “hygroscopic”.
